Experimental data taken from US20260285857A1, “BICYCLIC AND HETEROCYCLIC AMIDE COMPOUNDS” (priority 2024, published 2026).

System: immunoglobulin light chain protein WIL-FL T46L
Experiment: Differential scanning fluorimetry (thermal shift) assay
Type: binding
Settings: temperature shift [Tm]compound-[Tm]vehicle, recombinant WIL-FL T46L

Structure (SMILES) | DSF (Table B) | DSF (Table A)
Cc1cc(N2CC[C@](C)(c3ccccc3)C2)cn2nc(C(=O)NC3C4CCN(c5cccc(C(=O)O)n5)CC43)nc12 (stereo partly drawn) [Compound 685, 6-(7-(8-methyl-6-((R)-3-methyl-3-phenylpyrrolidin-1-yl)-[1,2,4]triazolo[1,5-a]pyridine-2-carboxamido)-3-azabicyclo[4.1.0]heptan-3-yl)picolinic acid] | ***** (>2.5° C.=*****) | 
Cc1cc(N2CC[C@](C)(c3ccccc3)C2)cn2nc(C34CC(CO3)C4N3C(=O)NC(=O)C3(C)C)nc12 (stereo partly shown) [Compound 79] |  | ***** (>2.5° C.=*****)
Cc1cc(N2CC[C@](C)(c3ccccc3)C2)cn2nc(C34CCC(N)(CC3)CO4)nc12 [Compound 64] |  | ***** (>2.5° C.=*****)
Cc1cc(N2CC[C@](C)(c3ccccc3)C2)cn2nc(C(=O)N3C[C@@H]4CN(c5cccc(C(=O)O)n5)C[C@]4(C)C3)nc12 [Compound 643] | ***** (>2.5° C.=*****) | 
Cc1cc(N2CC[C@](C)(c3ccccc3)C2)cn2nc(C34CC(CO)(CO3)C4C#N)nc12 (stereo partly shown) [Compound 49] |  | ***** (>2.5° C.=*****)
CNC(=O)c1nc2c(C(C)O)cc(N3CC[C@](C)(c4ccccc4)C3)cn2n1 (stereo partly shown) [Compound 336] |  | ***** (>2.5° C.=*****)
CNC(=O)c1nc2c(Cc3nc(CC(=O)O)n[nH]3)cc(N3CC[C@](C)(c4ccccc4)C3)cn2n1 [Compound 759, 2-[5-[[2-(methylcarbamoyl)-6-[(3R)-3-methyl-3-phenyl-pyrrolidin-1-yl]-[1,2,4]triazolo[1,5-a]pyridin-8-yl]methyl]-1H-1,2,4-triazol-3-yl]acetic acid] | **** (>1.5-2.5° C.=****) | 
Cc1cc(N2CC[C@](C)(c3ccccc3)C2)cn2nc(C(=O)N3CCC4(C3)OCC4N3CC4C(C3)C4C(=O)O)nc12 (stereo partly shown) [Compound 375] |  | ***** (>2.5° C.=*****)
Cc1cc(N2CC[C@](C)(c3ccccc3)C2)cn2nc(C(=O)N3CC4(CCN4C(=O)c4cccc(C(=O)O)n4)C3)nc12 [Compound 215] |  | ***** (>2.5° C.=*****)
Cc1cc(N2CCC(C)(c3nccs3)C2)cn2nc(C(=O)N3CC[C@@]4(CCN(c5cccc(C(=O)O)n5)C4)C3)nc12 (stereo partly shown) [Compound 99] |  | **** (>1.5-2.5° C.=****)
Cc1cc(N2CC[C@](C)(c3ccccc3)C2)cn2nc(C(=O)NC3CC4(C3)CC(N3CC(C(=O)O)C3)C4)nc12 (stereo partly shown) [Compound 600] | ***** (>2.5° C.=*****) | 
Cc1cc(N2CC3(CCC3c3cccc(Cl)c3)C2)cn2nc(C(=O)N3CC[C@@]4(CCN(c5cccc(C(=O)O)n5)C4)C3)nc12 (stereo partly shown) [Compound 740] | **** (>1.5-2.5° C.=****) | 
Cc1cc(N2CC[C@](C)(c3ccccc3)C2)cn2nc(C(=O)NC3CN(c4cccc(C(=O)O)n4)CCC3(C)C)nc12 (stereo partly shown) [Compound 274] |  | ***** (>2.5° C.=*****)
Cc1cc(N2CC[C@](C)(c3ccccc3)C2)cn2nc(C34CC(CO)(CO3)C4c3nnnn3C)nc12 (stereo partly shown) [Compound 571] | ***** (>2.5° C.=*****) | 
Cc1cc(N2CC[C@](C)(c3ccccc3)C2)cn2nc(C(=O)N[C@@H]3CNC[C@@H]3O)nc12 [Compound 191] |  | ***** (>2.5° C.=*****)
CCC1(c2ccccc2)CN(c2cc(C)c3nc(C(=O)NC4CCN(c5ccnc(C(=O)O)c5)CC4)nn3c2)C1 [Compound 395] |  | ***** (>2.5° C.=*****)
Cc1cc(N2CC3(CCC3c3ccccc3)C2)cn2nc(C(=O)N3C[C@@H]4CN(c5cccc(C(=O)O)n5)C[C@@H]4C3)nc12 (stereo partly shown) [Compound 291] |  | ***** (>2.5° C.=*****)
Cc1cc(N2CC[C@](C)(c3ccccc3)C2)cn2nc(C(=O)N3CC[C@]4(CCN(c5cc(C(=O)O)ccn5)C4)C3)nc12 [Compound 270] |  | ***** (>2.5° C.=*****)
Cc1nc([C@H]2[C@@]3(C(C)(C)O)CO[C@]2(c2nc4c(C)cc(N5CC[C@](C)(c6ccccc6)C5)cn4n2)C3)n[nH]1 [Compound 541] | ***** (>2.5° C.=*****) | 
Cc1cc(N2CC[C@](C)(c3ccccc3)C2)cn2nc(C(=O)NC3CCN(c4ccnc(S(C)(=N)=O)c4)CC3)nc12 (stereo partly shown) [Compound 283] |  | ***** (>2.5° C.=*****)
Cc1cc(C2C3COC2(c2nc4c(C)cc(N5CC[C@](C)(c6ccccc6)C5)cn4n2)C3)[nH]n1 (stereo partly shown) [Compound 484] | ***** (>2.5° C.=*****) | 
Cc1cc(N2CC[C@](C)(c3ccccc3)C2)cn2nc(C(=O)N3CC4CN(c5cccc(C(=O)O)n5)CC4(F)C3)nc12 (stereo partly shown) [Compound 244] |  | ***** (>2.5° C.=*****)
Cc1cc(N2CC[C@](C)(c3ccccc3)C2)cn2nc(C34CC(CO3)C4CN3CCN(C)C(=O)C3)nc12 (stereo partly shown) [Compound 488] | ***** (>2.5° C.=*****) | 
COC(=O)CC1C2CN(C3CC4(CC(NC(=O)c5nc6c(C)cc(N7CC[C@](C)(c8ccccc8)C7)cn6n5)C4)C3)CC12 (stereo partly shown) [Compound 357] |  | ***** (>2.5° C.=*****)
COC(C)(CC(=O)N1CC[C@@]2(CCN(C(=O)c3nc4c(C)cc(N5CC[C@](C)(c6ccccc6)C5)cn4n3)C2)C1)C(=O)O (stereo partly drawn) [Compound 706, 2-methoxy-2-methyl-4-[(5R)-2-[8-methyl-6-[(3R)-3-methyl-3-phenyl-pyrrolidin-1-yl]-[1,2,4]triazolo[1,5-a]pyridine-2-carbonyl]-2,7-diazaspiro[4.4]nonan-7-yl]-4-oxo-butanoic acid] | ***** (>2.5° C.=*****) | 

Structure (SMILES) | DSF (Table B) | DSF (Table A)
Cc1cc(N2CC[C@](C)(c3ccccc3)C2)cn2nc(C(=O)N3CCC4(CCN(c5cc(C(=O)O)cnn5)C4)C3)nc12 (stereo partly shown) [Compound 626] | ***** (>2.5° C.=*****) | 
Cc1cc(N2CC[C@](C)(c3ccccc3)C2)cn2nc(C(=O)NC3(C)CCNC3)nc12 (stereo partly shown) [Compound 189] |  | ***** (>2.5° C.=*****)
Cc1cc(N2CC3CC2(c2ccccc2)C3)cn2nc(C(=O)N3C[C@@H]4CN(c5cccc(C(=O)O)n5)C[C@@H]4C3)nc12 [Compound 297] |  | * (0-0.5° C.=*)
Cc1cc(N2CC[C@](C)(c3ccccc3)C2)cn2nc(C(=O)NC3CCC4(CCN(c5cccc(C(=O)O)n5)C4)C3)nc12 (stereo partly shown) [Compound 245] |  | ***** (>2.5° C.=*****)
Cc1cc(N2CC[C@](C)(c3ccccc3)C2)cn2nc(C(=O)NC3CC4(C3)CN(C(=O)CC(C)(C)C(=O)O)C4)nc12 [Compound 601] | ***** (>2.5° C.=*****) | 
Cc1n[nH]c(C2C3(NC(=O)[C@@H]4CC[C@H](C(=O)O)O4)COC2(c2nc4c(C)cc(N5CC[C@](C)(c6ccccc6)C5)cn4n2)C3)n1 (stereo partly drawn) [Compound 538, (2R,5S)-5-((5-(3-methyl-1H-1,2,4-triazol-5-yl)-1-(8-methyl-6-((R)-3-methyl-3-phenylpyrrolidin-1-yl)-[1,2,4]triazolo[1,5-a]pyridin-2-yl)-2-oxabicyclo[2.1.1]hexan-4-yl)carbamoyl)tetrahydrofuran-2-carboxylic acid] | ***** (>2.5° C.=*****) | 
Cc1ncn(CC2C3COC2(c2nc4c(C)cc(OC[C@H](C)c5ccccc5)cn4n2)C3)n1 (stereo partly drawn) [Compound 487, 8-methyl-2-(5-((3-methyl-1H-1,2,4-triazol-1-yl)methyl)-2-oxabicyclo[2.1.1]hexan-1-yl)-6-((R)-2-phenylpropoxy)-[1,2,4]triazolo[1,5-a]pyridine] | *** (>1-1.5° C.=***) | 
Cc1cc(N2CC[C@](C)(c3ccccc3)C2)cn2nc(C(=O)N3C[C@H](O)[C@@]4(CCN(c5cccc(C(=O)O)n5)C4)C3)nc12 [Compound 703, Mis6-[4-hydroxy-2-[8-methyl-6-[(3R)-3-methyl-3-phenyl-pyrrolidin-1-yl]-[1,2,4]triazolo[1,5-a]pyridine-2-carbonyl]-2,7-diazaspiro[4.4]nonan-7-yl]pyridine-2-carboxylic acid] | ***** (>2.5° C.=*****) | 
Cc1nn(CC2C3COC2(c2nc4c(C)cc(N5CC[C@](C)(c6ccccc6)C5)cn4n2)C3)c(=O)[nH]1 (stereo partly shown) [Compound 87] |  | ***** (>2.5° C.=*****)
COc1cc(N2C[C@H]3CN(C(=O)c4nc5c(C)cc(N6CC[C@](C)(c7ccccc7)C6)cn5n4)C[C@H]3C2)cc(C(=O)O)n1 [Compound 630] | ***** (>2.5° C.=*****) | 
Cc1ncn(CC23CC(C(=O)O)(C2)C(c2nc4c(C)cc(N5CC[C@](C)(c6ccccc6)C5)cn4n2)O3)n1 (stereo partly shown) [Compound 94] |  | ***** (>2.5° C.=*****)
Cc1cc(N2CC[C@](C)(c3ccccc3)C2)cn2nc(S(=O)(=O)NCC(C)(C)O)nc12 [Compound 323] |  | ***** (>2.5° C.=*****)
Cc1cc(N2CC[C@](C)(c3ccccc3)C2)cn2nc(C(C)(C)OC3CCNC3)nc12 (stereo partly shown) [Compound 168] |  | **** (>1.5-2.5° C.=****)
Cc1cc(N2CC[C@](C)(c3ccccc3)C2)cn2nc(C(=O)NC3CCNC3)nc12 (stereo partly shown) [Compound 101] |  | ***** (>2.5° C.=*****)
Cc1cc(N2CC[C@](C)(c3ccccc3)C2)cn2nc(C(=O)NC[C@@H]3CCCN3c3cccc(C(=O)O)n3)nc12 [Compound 689] | ***** (>2.5° C.=*****) | 
Cc1nc(C2C3COC2(c2nc4c(C)cc(N5CC[C@](C)(c6ccccc6)C5)cn4n2)C3)cs1 (stereo partly shown) [Compound 485] | ***** (>2.5° C.=*****) | 
Cc1cc(N2CC[C@](C)(c3ccc(F)c(Cl)c3)C2)cn2nc(C(=O)N3CC[C@@]4(CCN(c5cccc(C(=O)O)n5)C4)C3)nc12 [Compound 748] | ***** (>2.5° C.=*****) | 
Cc1cc(N2CC[C@](C)(c3ccccc3)C2)cn2nc(C(=O)N3CC4(CCC4Oc4cccc(C(=O)O)n4)C3)nc12 (stereo partly shown) [Compound 216] |  | ***** (>2.5° C.=*****)
Cc1cc(N2CC[C@](C)(c3ccccc3)C2)cn2nc(C(=O)NCC3CCN(c4cccc(C(=O)O)n4)CC3)nc12 [Compound 647] | ***** (>2.5° C.=*****) | 
CNC(=O)c1nc2c(CN)cc(N3CC[C@](C)(c4ccccc4)C3)cn2n1 [Compound 335] |  | ***** (>2.5° C.=*****)
Cc1cc(N2CC[C@](C)(c3ccccc3)C2)cn2nc(C34CC(CO)(CO3)C4C(N)=O)nc12 (stereo partly shown) [Compound 42] |  | ***** (>2.5° C.=*****)
CCC(=O)NCC1C2COC1(c1nc3c(C)cc(N4CC[C@](C)(c5ccccc5)C4)cn3n1)C2 (stereo partly shown) [Compound 81] |  | ***** (>2.5° C.=*****)
Cc1cc(N2CC[C@@](C)(c3cccc(F)c3)C2)cn2nc(C(=O)NCC(C)(C)O)nc12 [Compound 382] |  | ***** (>2.5° C.=*****)
Cc1cc(N2CC[C@](C)(c3ccccc3)C2)cn2nc(C(=O)N3CC4(CC(Oc5cccc(C(=O)O)n5)C4)C3)nc12 [Compound 221] |  | ***** (>2.5° C.=*****)
